Data taken from the supplement of paper PMC10307832.

How the values were obtained:
Experiment in all cases: relative viability (nuclei count vs DMSO), 5 days (fraction); higher = more cells survive
BI-D1870 + Bortezomib = compound: CC(C)CCN1c2nc(Nc3cc(F)c(O)c(F)c3)ncc2N(C)C(=O)C1C [BI-D1870] + CC(C)C[C@H](NC(=O)[C@H](Cc1ccccc1)NC(=O)c1cnccn1)B(O)O [Bortezomib] (partner 0.002 µM)
Method in brief: (§1)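 After 5 days of treatment, lung cancer cells in 1536-well plates were fixed and stained in a single step (final 0.05% Triton X-100, 1% formaldehyde, 1 ug/ml Hoechst) and their nuclei counted on 4× images. Treatment had been applied by pin tool the day after seeding as one drug alone or as a fixed anchor-drug dose with five library-drug doses (not always all listed) in √10 steps. Relative viability is the nuclei count of treated wells divided by that of vehicle wells, and values are medians of duplicate plates.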

Zebularine + Palbociclib = compound: O=c1ncccn1[C@@H]1O[C@H](CO)[C@@H](O)[C@H]1O [Zebularine] + CC(=O)c1c(C)c2cnc(Nc3ccc(N4CCNCC4)cn3)nc2n(C2CCCC2)c1=O [Palbociclib] (partner 0.5 µM)
Method in brief: as §1

Zebularine + Dasatinib = compound: O=c1ncccn1[C@@H]1O[C@H](CO)[C@@H](O)[C@H]1O [Zebularine] + Cc1nc(Nc2ncc(C(=O)Nc3c(C)cccc3Cl)s2)cc(N2CCN(CCO)CC2)n1 [Dasatinib] (partner 0.075 µM)
Method in brief: as §1

BI-D1870 + Linsitinib = compound: CC(C)CCN1c2nc(Nc3cc(F)c(O)c(F)c3)ncc2N(C)C(=O)C1C [BI-D1870] + C[C@]1(O)C[C@@H](c2nc(-c3ccc4ccc(-c5ccccc5)nc4c3)c3c(N)nccn32)C1 [Linsitinib] (partner 1 µM)
Method in brief: as §1

Cell Line	relative viability (BI-D1870 + Bortezomib; first compound 0.04 µM)	relative viability (BI-D1870 + Bortezomib; first compound 0.1265 µM)	relative viability (BI-D1870 + Bortezomib; first compound 0.4 µM)	relative viability (BI-D1870 + Bortezomib; first compound 1.265 µM)	relative viability (BI-D1870 + Bortezomib; first compound 4 µM)	relative viability (Zebularine + Palbociclib; first compound 1 µM)	relative viability (Zebularine + Palbociclib; first compound 3.162 µM)	relative viability (Zebularine + Palbociclib; first compound 10 µM)	relative viability (Zebularine + Palbociclib; first compound 31.62 µM)	relative viability (Zebularine + Palbociclib; first compound 100 µM)	relative viability (Zebularine + Dasatinib; first compound 1 µM)	relative viability (Zebularine + Dasatinib; first compound 3.162 µM)	relative viability (Zebularine + Dasatinib; first compound 31.62 µM)	relative viability (Zebularine + Dasatinib; first compound 100 µM)	relative viability (BI-D1870 + Linsitinib; first compound 0.04 µM)	relative viability (BI-D1870 + Linsitinib; first compound 0.1265 µM)	relative viability (BI-D1870 + Linsitinib; first compound 0.4 µM)	relative viability (BI-D1870 + Linsitinib; first compound 1.265 µM)	relative viability (BI-D1870 + Linsitinib; first compound 4 µM)	relative viability (Zebularine + Dasatinib; first compound 10 µM)
NCI-H3122	1	0.932	1.05	1.03	0.996	0.204	0.185	0.173	0.195	0.19	0.981	0.79	0.889	0.918	1.06	0.925	0.988	0.974	1.02	
PC-3 [JPC-3]	0.74	0.859	0.825	0.889	0.829	0.537	0.535	0.507	0.605	0.514	1.05	1.05	0.979	0.79	0.959	0.913	0.956	1.02	0.897	0.61
PC-14	0.95	0.909	0.809	0.963	0.559	0.627	0.417	0.175	0.103	0.118	0.301	0.198	0.0811	0.0854	1.04	0.919	0.908	0.91	0.633	0.224
RERF-LC-KJ	1.12	0.997	1.13	1.25	0.946	1.09	1.01	0.871	1.3	1.24	0.92	0.81	0.999	0.956	0.919	0.882	0.842	0.814	0.812	0.759
SK-LU-1	1.16	1.07	1.04	1.49	0.823	0.417	0.408	0.347	0.38	0.356	0.168	0.184	0.172	0.144	1.33	0.993	1.09	1.05	0.597	0.162
SW 1573	1.08	0.907	0.883	0.986	0.577	0.451	0.435		0.391	0.38	0.555	0.523	0.548	0.475	0.768	0.756	0.89	0.771	0.63	
